Data set [1] concerns the target T1, Histone-lysine N-methyltransferase, H3 lysine-79 specific (Homo sapiens, UniProt Q8TEK3). Put plainly: Binding affinity to human DOT1L assessed as binding free energy difference.
Target sequence in this assay (Q8TEK3 whole entry, looked up): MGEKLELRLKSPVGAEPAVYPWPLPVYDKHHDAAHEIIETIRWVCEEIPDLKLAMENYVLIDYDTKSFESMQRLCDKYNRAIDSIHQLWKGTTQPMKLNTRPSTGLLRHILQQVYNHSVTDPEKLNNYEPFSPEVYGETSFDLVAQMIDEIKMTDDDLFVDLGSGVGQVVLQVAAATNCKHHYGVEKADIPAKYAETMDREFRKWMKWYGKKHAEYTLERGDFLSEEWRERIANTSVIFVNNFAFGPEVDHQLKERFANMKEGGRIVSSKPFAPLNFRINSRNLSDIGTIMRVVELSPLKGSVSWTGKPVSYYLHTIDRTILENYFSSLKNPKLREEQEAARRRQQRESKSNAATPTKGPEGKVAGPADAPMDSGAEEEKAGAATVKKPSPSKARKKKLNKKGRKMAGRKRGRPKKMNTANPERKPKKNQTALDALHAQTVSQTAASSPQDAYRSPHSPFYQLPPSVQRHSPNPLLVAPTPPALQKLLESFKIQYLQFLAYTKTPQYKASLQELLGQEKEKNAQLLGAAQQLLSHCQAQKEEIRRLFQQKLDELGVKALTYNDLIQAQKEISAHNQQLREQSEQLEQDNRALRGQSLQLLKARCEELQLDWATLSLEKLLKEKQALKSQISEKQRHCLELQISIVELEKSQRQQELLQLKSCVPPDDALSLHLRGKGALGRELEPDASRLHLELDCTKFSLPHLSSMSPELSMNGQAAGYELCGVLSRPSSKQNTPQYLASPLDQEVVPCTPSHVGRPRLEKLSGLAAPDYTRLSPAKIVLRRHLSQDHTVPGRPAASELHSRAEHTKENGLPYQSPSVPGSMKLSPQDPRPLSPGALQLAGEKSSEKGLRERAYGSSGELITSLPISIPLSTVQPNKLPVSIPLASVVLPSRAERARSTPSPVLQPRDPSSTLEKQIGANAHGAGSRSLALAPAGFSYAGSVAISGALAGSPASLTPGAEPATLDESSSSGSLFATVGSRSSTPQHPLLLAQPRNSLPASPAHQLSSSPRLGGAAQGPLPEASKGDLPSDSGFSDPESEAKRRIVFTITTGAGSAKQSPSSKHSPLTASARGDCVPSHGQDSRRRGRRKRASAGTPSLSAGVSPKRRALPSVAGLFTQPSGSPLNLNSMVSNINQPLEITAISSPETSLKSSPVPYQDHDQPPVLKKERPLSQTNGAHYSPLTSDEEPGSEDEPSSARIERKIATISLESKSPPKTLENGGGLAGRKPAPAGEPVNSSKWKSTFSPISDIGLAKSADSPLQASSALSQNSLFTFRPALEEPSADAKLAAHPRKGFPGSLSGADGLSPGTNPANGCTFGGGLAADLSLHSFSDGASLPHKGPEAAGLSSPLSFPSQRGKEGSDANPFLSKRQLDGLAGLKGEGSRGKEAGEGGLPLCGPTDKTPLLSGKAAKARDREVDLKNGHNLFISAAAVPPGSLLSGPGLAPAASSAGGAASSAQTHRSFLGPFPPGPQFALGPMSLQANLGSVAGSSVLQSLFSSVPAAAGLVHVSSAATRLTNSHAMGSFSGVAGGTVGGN
For data set [2], the target named is T1, Histone-lysine N-methyltransferase, H3 lysine-79 specific. As to the kind of experiment: Inhibition of human DOT1L by hotspot PMT activity assay.
Target sequence in this assay (Q8TEK3 whole entry): as the sequence (Q8TEK3 whole entry, looked up) above
Data set [3] is described as follows: AUC (0 to infinity) in fasted BALB/c mouse at 20 mg/kg, iv administered upto 600 mins by HPLC-MS/MS analysis. Type of data set: ADME, organism-based. Details: dose 20 mg/kg, time < 600 min, route iv. Particulars: in vivo.
The nature of data set [4]: Tmax in fasted BALB/c mouse at 20 mg/kg, iv administered upto 600 mins by HPLC-MS/MS analysis. Type of data set: ADME, organism-based. Particulars: in vivo.
Data set [5] can be described thus: Cmax in fasted BALB/c mouse at 20 mg/kg, iv administered upto 600 mins by HPLC-MS/MS analysis. Details: time < 600 min, dose 20 mg/kg, route iv. The settings on record: in vivo. Type of data set: ADME, organism-based.
Data set [6] is described as follows: Bioavailability in fasted BALB/c mouse at 20 mg/kg, iv administered upto 600 mins by HPLC-MS/MS analysis. The settings on record: in vivo. Type of data set: ADME, organism-based.
The nature of data set [7]: AUC (0 to t) in fasted BALB/c mouse at 20 mg/kg, po administered upto 600 mins by HPLC-MS/MS analysis. Type of data set: ADME, organism-based. Details: dose 20 mg/kg, time < 600 min, route po. The settings on record: in vivo.
Data set [8] in a line: Cmax in fasted BALB/c mouse at 20 mg/kg, po administered upto 600 mins by HPLC-MS/MS analysis. Details: time < 600 min, dose 20 mg/kg, route po. Particulars: in vivo. Type of data set: ADME, organism-based.
Data set [9] in a line: Half life in fasted BALB/c mouse at 20 mg/kg, po administered upto 600 mins by HPLC-MS/MS analysis. Type of data set: ADME, organism-based. The settings on record: in vivo.
The nature of data set [10]: AUC (0 to infinity) in fasted BALB/c mouse at 20 mg/kg, po administered upto 600 mins by HPLC-MS/MS analysis. Type of data set: ADME, organism-based. Details: dose 20 mg/kg, time < 600 min, route po. Particulars: in vivo.
Data set [11] is described as follows: Half life in fasted BALB/c mouse at 20 mg/kg, iv administered upto 600 mins by HPLC-MS/MS analysis. The settings on record: in vivo. Type of data set: ADME, organism-based.
Data set [12] is described as follows: Elimination rate constant in fasted BALB/c mouse at 20 mg/kg, po administered upto 600 mins by HPLC-MS/MS analysis. Type of data set: ADME, organism-based. Particulars: in vivo.
Data set [13] can be described thus: Volume of distribution in fasted BALB/c mouse at 20 mg/kg, iv administered upto 600 mins by HPLC-MS/MS analysis. Type of data set: ADME, organism-based. The settings on record: in vivo.
The nature of data set [14]: AUC (0 to t) in fasted BALB/c mouse at 20 mg/kg, iv administered upto 600 mins by HPLC-MS/MS analysis. Type of data set: ADME, organism-based. Details: dose 20 mg/kg, time < 600 min, route iv. The settings on record: in vivo.
Data set [15] can be described thus: Elimination rate constant in fasted BALB/c mouse at 20 mg/kg, iv administered upto 600 mins by HPLC-MS/MS analysis. Type of data set: ADME, organism-based. Particulars: in vivo.
The nature of data set [16]: Clearance in fasted BALB/c mouse at 20 mg/kg, iv administered upto 600 mins by HPLC-MS/MS analysis. Type of data set: ADME, organism-based. Particulars: in vivo.
The nature of data set [17]: Tmax in fasted BALB/c mouse at 20 mg/kg, po administered upto 600 mins by HPLC-MS/MS analysis. Type of data set: ADME, organism-based. The settings on record: in vivo.

`CN(CCCNC(=O)Nc1ccccc1)C[C@H]1C[C@@H](c2cnn3c(N)ccnc23)[C@H](O)[C@@H]1O`: the deltaG in data set [1] amounted to 2.63 kcal/mol.

Broadly, the IC50 is the point on the concentration scale where inhibition reaches its midpoint. A higher IC50 goes with lower potency. On to `CN(CCCNC(=O)Nc1ccc(C(C)(C)C)cc1)C[C@H]1C[C@@](O)(c2ccc3c(N)ncnn23)[C@H](O)[C@@H]1O`, for which, in [2], the IC50 is more than 10000 nM.

As usually defined, the AUC(0-inf) is total exposure, with the tail of the curve extrapolated. As usually defined, the Tmax is the time from dosing to the highest level. What is called Cmax is the peak of the concentration-time curve. The term bioavailability denotes the share of a dose that reaches the circulation, judged against a reference dose that is usually intravenous. High values mean good availability, low ones poor availability. For orientation: AUC(0-t) means exposure summed from dosing to a finite time, without extrapolation to infinity. The term half-life denotes the time in which the quantity being followed falls by half. The low end stands for rapid decline, the high end for slow decline. Broadly, the Vd is a proportionality between amount in the body and measured concentration, not a real space. Read a low Vd as little distribution into tissue. One may read the clearance as a measure of how efficiently the substance is removed, as volume per time. Lower therefore signals a low capacity for elimination. `CN(CCCNC(=O)Nc1ccc(C(C)(C)C)cc1)C[C@H]1C[C@@H](c2ccc3c(N)ncnn23)[C@H](O)[C@@H]1O` (stereo in doubt; (-)-25) had an IC50 in data set [2] of 19 nM. The AUC(0-inf) in data set [3] was 3080 ng·h/mL; in [10] it was 8.53 ng·h/mL. For the same compound, the Tmax in data set [4] and in [17] was 5 min throughout. Moreover, the Cmax in data set [5] came to 8320 ng/mL; in data set [8] it was 36.4 ng/mL. The bioavailability in [6] is 0.3%. Besides, the AUC(0-t) at 10 h in data set [7] was 8.07 ng·h/mL; in [14] it was 3020 ng·h/mL. Further, the results for the half-life in data set [9] and in data set [11] were 6.78 min and 118 min, respectively. Besides, the k el at 10 h in [12] was 0.0017 s⁻¹; in [15], 9.82e-05 s⁻¹. In [13], this compound returned a Vd of 18.4 L/kg. The same compound showed a clearance in data set [16] of 108 mL/min/kg.

`CC(C)N(CCCNC(=O)NC12CC3CC(CC(C3)C1)C2)C[C@H]1C[C@@H](c2ccc3c(N)ncnn23)[C@H](O)[C@@H]1O` showed a 50% inhibitory concentration (IC50) in data set [2] of more than 10000 nM.

Take `CC(C)NC[C@H]1C[C@@H](c2ccc3c(N)ncnn23)[C@H](O)[C@@H]1O`: the AUC(0-inf) is 14200 ng·h/mL in [3] and 1300 ng·h/mL in [10]. Besides, the results for the time to peak (Tmax) in data set [4] and in [17] were 5 min and 120 min, respectively. Moreover, the values for the Cmax in data set [5] and in [8] were 40800 ng/mL and 561 ng/mL, respectively. The same compound returned a bioavailability in data set [6] of 9%. Further, the AUC(0-t) at 10 h in [7] was 1200 ng·h/mL; in data set [14], 14200 ng·h/mL. The half-life in data set [9] was determined as 44.9 min; in [11] it was 115 min. Moreover, the k el at 10 h is 0.000257 s⁻¹ in data set [12] and 0.0001 s⁻¹ in data set [15]. Moreover, the distribution volume (Vd) in [13] turned out to be 3.88 L/kg. The same compound yielded a clearance in data set [16] of 23.3 mL/min/kg.

On to `CC(C)N(CCCNC(=O)Nc1ccccc1)C[C@H]1C[C@@H](c2ccc3c(N)ncnn23)[C@H](O)[C@@H]1O`, for which the deltaG in data set [1] is -0.717 kcal/mol.

On to `CN(CCCNC(=O)Nc1ccc(C(C)(C)C)cc1)C[C@H]1C[C@@H](c2cnn3c(N)ccnc23)[C@H](O)[C@@H]1O`, for which the IC50 in data set [2] was more than 10000 nM.

Consider `CN(CCCNC(=O)Nc1ccccc1)C[C@H]1C[C@@](O)(c2ccc3c(N)ncnn23)[C@H](O)[C@@H]1O`, for which the deltaG in [1] stood at 3.35 kcal/mol.

For the compound `CN(CCCNC(=O)Nc1ccccc1)C[C@H]1C[C@@H](c2ccc3c(N)ncnn23)[C@H](O)[C@@H]1O`, in data set [2], it took 369 nM to reach half-maximal inhibition (IC50). That is a sub-micromolar value.

The values are drawn from ChEMBL document CHEMBL5154806, “Synthesis and Profiling of Highly Selective Inhibitors of Methyltransferase DOT1L Based on Carbocyclic C-Nucleosides” (J Med Chem, 2022).
